# Laboratory results reported in US8217167B2, “Phenanthrylphenol linked pyrrolo [2, l-c] [l, 4] benzodiazepine hybrids as potential antitumour agents and process for the preparation thereof” (Council of Scientific & Industrial Research, priority 2008, dated 2012).
# Tests used:
# [1] = test system: duplex-form calf thymus DNA (CT-DNA); experiment: Thermal denaturation studies with calf thymus DNA; type: binding; conditions: [PBD]:[DNA] molar ratio 1:5, CT-DNA 100 μM, ligand 20 μM, sodium phosphate buffer pH 7.00; for ΔTm after incubation at 37° C. for 0 h: 0 h incubation at 37° C.; for ΔTm after incubation at 37° C. for 18 h: 18 h incubation at 37° C.
# Description: Compounds have been subjected to thermal denaturation studies with duplex-form calf thymus DNA (CT-DNA) using a modification of a reported procedure (Newman, M. S. Carcinog-compr. Surv. 1976, 1, 203; (b) Hecht, S. S.; Loy, M.; Hoffman, Carcinog-compr. Surv. 1976, 1, 325). Working solutions in aqueous buffer (10 mM NaH2PO4/Na2HPO4, 1 mM Na2EDTA, pH 7.00+0.01) containing CT-DNA (100 μm in phosphate) and the PBD (20 μm) have been prepared by addition of concentrated PBD solutions in DMSO to obtain a fixed [PBD]/[DNA] molar ratio of 1:5. The DNA-PBD solutions have been incubated at 37° C. for 0 and 18 h prior to analysis. Samples have been monitored at 260 nm using a Beckman DU-800 spectrophotometer fitted with high performance temperature controller, and heated at 1° C. min^−1 in the 40-110° C. range. DNA helix→coil transition temperatures (Tm) have been obtained from the maxima in the d(A260)/dT derivative plots. Drug-induced alterations in DNA melting behavior are given by: ΔTm=Tm(DNA+PBD)−Tm(DNA alone), where the Tm value for the PBD-free CT-DNA is 69.1±0.01.
# The DNA binding activity for these new C8-linked phenanthrylphenol-PBD hybrids has been examined by thermal denaturation studies using calf thymus (CT) DNA. […] The data for the compounds 6a-c is included in Table 1 for comparison.
# Liver HEP-2 = type: cell-based; conditions: human
# From the text: (§1) The compounds 6a-c (n=1-3) were examined for preliminary in vitro cytotoxicity on six cell lines, among these compound's 6a has shown promising activity as shown in Table 2 and was further taken up detailed in vitro anticancer activity at the National Cancer Institute, Maryland, USA.
# Ovary OVCAR-5 = type: cell-based; conditions: human
# From the text: as §1
# Colon 502713 = type: cell-based; conditions: human
# From the text: as §1
# Colon HCT-15 = type: cell-based; conditions: human
# From the text: as §1
# Lung A-549 = type: cell-based; conditions: human
# From the text: as §1
# Neuroblastoma IMR-32 = type: cell-based; conditions: human
# From the text: as §1
# Colon cancer cell lines = experiment: NCI in vitro anticancer activity (SRB assay), Colon panel; type: cell-based; conditions: Homo sapiens
# Description: (§2) The compound 6a was evaluated for in vitro anticancer activity against sixty human tumour cells derived from nine cancer panels (leukemia, non-small-cell lung, colon, CNS, melanoma, ovarian, prostate, renal and breast cancer) as shown in Table 4. For compound 6a, dose response curves for each cell line were measured at a minimum of five concentrations at 10 fold dilutions. A protocol of 48 h continuous drug exposure was used and a sulforhodamine B (SRB) protein assay was used to estimate cell viability or growth. The concentration causing 50% cell growth inhibition (GI50), total cell growth inhibition (TGI 0% growth) and 50% cell death (LC50, […]) compared with the control was calculated.
# (§3) Each cancer type represents the average of six to nine different cancer cell lines.
# [2] = test system: Prostate cancer cell lines; experiment: NCI in vitro anticancer activity (SRB assay), Prostate panel; type: cell-based; conditions: Homo sapiens
# Description: as §2, §3
# [3] = test system: Non-small-cell-lung cancer cell lines; experiment: NCI in vitro anticancer activity (SRB assay), Non-small-cell-lung panel; type: cell-based; conditions: Homo sapiens
# Description: as §2, §3
# Renal cancer cell lines = experiment: NCI in vitro anticancer activity (SRB assay), Renal panel; type: cell-based; conditions: Homo sapiens
# Description: as §2, §3
# Breast cancer cell lines = experiment: NCI in vitro anticancer activity (SRB assay), Breast panel; type: cell-based; conditions: Homo sapiens
# Description: as §2, §3
# [4] = test system: sixty human tumour cells derived from nine cancer panels; experiment: NCI in vitro anticancer activity (SRB assay), mean graph midpoints over sixty cell lines; type: cell-based
# Description: as §2
# [5] = test system: Ovarian cancer cell lines; experiment: NCI in vitro anticancer activity (SRB assay), Ovarian panel; type: cell-based; conditions: Homo sapiens
# Description: as §2, §3
# [6] = test system: Leukemia cancer cell lines; experiment: NCI in vitro anticancer activity (SRB assay), Leukemia panel; type: cell-based; conditions: Homo sapiens
# Description: as §2, §3
# [7] = test system: Melanoma cancer cell lines; experiment: NCI in vitro anticancer activity (SRB assay), Melanoma panel; type: cell-based; conditions: Homo sapiens
# Description: as §2, §3
# CNS cancer cell lines = experiment: NCI in vitro anticancer activity (SRB assay), CNS panel; type: cell-based; conditions: Homo sapiens
# Description: as §2, §3
# [8] = 48 h, read-out: Log10 LC50 (concentration in mol/L causing 50% lethality) (converted)
compound,measurement,setting,value
"COc1cc2c(cc1O)N=CC1CCCN1C2=O (centres unmarked) [DC-81, reference compound]",ΔTm after incubation at 37° C. for 0 h,[1],0.3 °C
same,ΔTm after incubation at 37° C. for 18 h,[1],0.7 °C
"COc1cc2c(cc1OCCCCOc1ccc(-c3cc4ccccc4c4ccccc34)cc1)N=C[C@@H]1CCCN1C2=O [Compound 6b, (11aS)-7-methoxy-8-4-[4-(9-phenanthryl)phenoxy]butoxy-2,3,5,11a-tetrahydro-1H-benzo[e]pyrrolo[1,2-a][1,4]diazepin-5-one]",ΔTm after incubation at 37° C. for 0 h,[1],0.3 °C
same,ΔTm after incubation at 37° C. for 18 h,[1],0.5 °C
same,"Preliminary in vitro cytotoxicity data, Liver HEP-2",Liver HEP-2,49
same,"Preliminary in vitro cytotoxicity data, Ovary OVCAR-5",Ovary OVCAR-5,93
same,"Preliminary in vitro cytotoxicity data, Colon 502713",Colon 502713,72
same,"Preliminary in vitro cytotoxicity data, Colon HCT-15",Colon HCT-15,77
same,"Preliminary in vitro cytotoxicity data, Lung A-549",Lung A-549,50
same,"Preliminary in vitro cytotoxicity data, Neuroblastoma IMR-32",Neuroblastoma IMR-32,67
"COc1cc2c(cc1OCCCCCOc1ccc(-c3cc4ccccc4c4ccccc34)cc1)N=C[C@@H]1CCCN1C2=O [Compound 6c, (11aS)-7-methoxy-8-(5-[4-(9-phenanthryl)phenoxy]pentyloxy)-2,3,5,11a-tetrahydro-1H-benzo[e]pyrrolo[1,2-a][1,4]diazepin-5-one]",ΔTm after incubation at 37° C. for 0 h,[1],0.1 °C
same,ΔTm after incubation at 37° C. for 18 h,[1],0.2 °C
same,"Preliminary in vitro cytotoxicity data, Liver HEP-2",Liver HEP-2,65
same,"Preliminary in vitro cytotoxicity data, Ovary OVCAR-5",Ovary OVCAR-5,98
same,"Preliminary in vitro cytotoxicity data, Colon 502713",Colon 502713,74
same,"Preliminary in vitro cytotoxicity data, Colon HCT-15",Colon HCT-15,79
same,"Preliminary in vitro cytotoxicity data, Lung A-549",Lung A-549,36
same,"Preliminary in vitro cytotoxicity data, Neuroblastoma IMR-32",Neuroblastoma IMR-32,73
"COc1cc2c(cc1OCCCOc1ccc(-c3cc4ccccc4c4ccccc34)cc1)N=C[C@@H]1CCCN1C2=O [Compound 6a, (11aS)-7-methoxy-8-3-[4-(9-phenanthryl)phenoxy]propoxy-2,3,5,11a-tetrahydro-1H-benzo[e]pyrrolo[1,2-a][1,4]diazepin-5-one]",CC50,Colon cancer cell lines; [8],4900 nM
same,GI50,"Colon cancer cell lines; Colon panel average, 48 h exposure, SRB, read-out: Log10 GI50 (concentration in mol/L) (converted)",776 nM
same,LC50 (concentration causing 50% tumour cell death),[2]; [8],3890 nM
same,GI50,"[2]; Prostate panel average, 48 h exposure, SRB, read-out: Log10 GI50 (concentration in mol/L) (converted)",398 nM
same,LC50,[3]; [8],5370 nM
same,GI50,"[3]; Non-small-cell-lung panel average, 48 h exposure, SRB, read-out: Log10 GI50 (concentration in mol/L) (converted)",776 nM
same,LC50 (50% lethal concentration),Renal cancer cell lines; [8],3630 nM
same,GI50,"Renal cancer cell lines; Renal panel average, 48 h exposure, SRB, read-out: Log10 GI50 (concentration in mol/L) (converted)",490 nM
same,ΔTm after incubation at 37° C. for 0 h,[1],1.0 °C
same,ΔTm after incubation at 37° C. for 18 h,[1],1.8 °C
same,LC50 (50% lethal concentration),Breast cancer cell lines; [8],8710 nM
same,GI50,"Breast cancer cell lines; Breast panel average, 48 h exposure, SRB, read-out: Log10 GI50 (concentration in mol/L) (converted)",339 nM
same,Log10 TGI mean graph midpoint (MG_MID),"[4]; 48 h continuous drug exposure, SRB assay, mean over human tumour cell lines",−5.76
same,GI50,"[4]; 48 h continuous drug exposure, SRB assay, mean over human tumour cell lines, read-out: Log10 GI50 mean graph midpoint (MG_MID) (converted)",525 nM
same,CC50,"[4]; Homo sapiens, 48 h, read-out: Log10 LC50 mean graph midpoint (MG_MID) (converted)",5500 nM
same,CC50,[5]; [8],3720 nM
same,GI50,"[5]; Ovarian panel average, 48 h exposure, SRB, read-out: Log10 GI50 (concentration in mol/L) (converted)",501 nM
same,"Preliminary in vitro cytotoxicity data, Liver HEP-2",Liver HEP-2,58
same,"Preliminary in vitro cytotoxicity data, Ovary OVCAR-5",Ovary OVCAR-5,98
same,"Preliminary in vitro cytotoxicity data, Colon 502713",Colon 502713,69
same,"Preliminary in vitro cytotoxicity data, Colon HCT-15",Colon HCT-15,99
same,"Preliminary in vitro cytotoxicity data, Lung A-549",Lung A-549,88
same,"Preliminary in vitro cytotoxicity data, Neuroblastoma IMR-32",Neuroblastoma IMR-32,85
same,CC50,[6]; [8],15100 nM
same,GI50,"[6]; Leukemia panel average, 48 h exposure, SRB, read-out: Log10 GI50 (concentration in mol/L) (converted)",195 nM
same,LC50,[7]; [8],4680 nM
same,GI50,"[7]; Melanoma panel average, 48 h exposure, SRB, read-out: Log10 GI50 (concentration in mol/L) (converted)",692 nM
same,LC50,CNS cancer cell lines; [8],4680 nM
same,GI50,"CNS cancer cell lines; CNS panel average, 48 h exposure, SRB, read-out: Log10 GI50 (concentration in mol/L) (converted)",813 nM
